Data published in patent publication US5652226A (priority 1995, dated 1997).
Converted amounts (≈) assume the structure as drawn.

Legend:
Format in all cases: cell-based
[1] = system: various strains of streptococci and enterococci resistant to vancomycin; assay: microbe, parasite or virus in culture; details: read-out: MICs
[2] = system: methicillin-resistant staphylococci; assay: microbe, parasite or virus in culture
[3] = system: methicillin-susceptible staphylococci; assay: microbe, parasite or virus in culture
Enterococcus faecalis = assay: microbe, parasite or virus in culture
Borrelia burgdorferi = assay: microbe, parasite or virus in culture; details: Borreliella burgdorferi, read-out: MICs
[4] = system: Legionella pneumophila and L. Longbeachea; assay: microbe, parasite or virus in culture; details: read-out: MICs
gram negative bacteria = assay: microbe, parasite or virus in culture; details: read-out: GMM
Trichiomonas vaginalis = assay: microbe, parasite or virus in culture; details: read-out: MICs
Mycoplasma = assay: microbe, parasite or virus in culture; details: read-out: MICs
[5] = system: gram positive and gram negative bacteria

Compound | MIC [1] [µg/mL] | potency relative to vancomycin ([2]; more potent than vancomycin, methicillin-resistant staphylococci) [fold] | MIC ([2]; read-out: GMM) [µg/mL] | potency relative to vancomycin [3] [fold] | MIC ([3]; read-out: GMM) [µg/mL] | potency relative to vancomycin (Enterococcus faecalis) [fold] | MIC (Enterococcus faecalis; Enterococcus faecalis, read-out: GMM) [µg/mL] | MIC (Borrelia burgdorferi) [µg/mL] | MIC [4] [µg/mL] | MIC (gram negative bacteria) [µg/mL] | MIC (Trichiomonas vaginalis) [µg/mL] | MIC (Mycoplasma) [µg/mL] | cross resistance with other antibiotics [5]
CN[C@H](CC(C)C)C(=O)N[C@H]1C(=O)N[C@@H](CC(N)=O)C(=O)N[C@H]2C(=O)N[C@H]3C(=O)N[C@H](C(=O)N[C@H](C(=O)O)c4cc(O)cc(O)c4-c4cc3ccc4O)[C@H](O)c3ccc(c(Cl)c3)Oc3cc2cc(c3O[C@@H]2O[C@H](CO)[C@@H](O)[C@H](O)[C@H]2O[C@H]2C[C@](C)(N)[C@H](O)[C@H](C)O2)Oc2ccc(cc2Cl)[C@H]1O [vancomycin] | ≥ 128 | – | – | – | – | – | – | – | – | – | – | – | –
COC[C@H]1O[C@@H](O[C@@H]2OC[C@@H]3O[C@@]4(OC[C@@H](OC(=O)c5c(C)cc(O)cc5O)[C@@H]5OCO[C@H]54)O[C@H]3[C@H]2O)[C@@H](OC)[C@@H](O)[C@@H]1O[C@@H]1O[C@H](C)[C@H](OC)[C@H](O[C@@H]2O[C@H](C)[C@H]3O[C@]4(C[C@@H](O)[C@H](O[C@H]5C[C@@H](O[C@H]6C[C@](C)([N+](=O)[O-])[C@@H](OC)[C@H](C)O6)[C@H](OC(=O)c6c(C)c(Cl)c(O)c(Cl)c6OC)[C@@H](C)O5)[C@@H](C)O4)O[C@]3(C)[C@@H]2O)[C@H]1O [Everninomicin, everninomicin] | ≤ 0.5 | 10 | 0.1 (≈ 0.0613 µM) | 10 | 0.5 (≈ 0.306 µM) | 2 | 0.49 (≈ 0.3 µM) | ≤ 0.49 | ≥ 2.5 | ≥ 760 | ≥ 192 | ≥ 200 | No cross resistance with other antibiotics was observed
